In one experiment the test system is COLO 205. Briefly: Cytotoxicity against human COLO205 cells assessed as inhibition of cell growth after 48 hrs by MTT assay. As to conditions: COLO 205, 48 h. It is filed as functional, cell-based.
The subject of experiment [1] is HL-60. Briefly: Cytotoxicity against human HL60 cells assessed as inhibition of cell growth after 48 hrs by MTT assay. It is filed as functional, cell-based. As to conditions: HL-60, 48 h. In general terms: Tetrazolium dyes change colour on reduction, which living cells bring about.
For a further experiment, the system named is SGC-7901. Briefly: Cytotoxicity against human SGC7901 cells assessed as inhibition of cell growth after 48 hrs by MTT assay. As to conditions: SGC-7901, 48 h. It is filed as functional, cell-based.
For the next experiment, the system named is MCF7. Briefly: Cytotoxicity against human MCF7 cells assessed as inhibition of cell growth after 48 hrs by MTT assay. As to conditions: MCF7, 48 h. It counts as functional, cell-based.
The test system of experiment [2] is A549. Briefly: Cytotoxicity against human A549 cells assessed as inhibition of cell growth after 48 hrs by MTT assay. It is filed as functional, cell-based. As to conditions: A549, 48 h.
Another experiment concerns SMMC-7721. Briefly: Cytotoxicity against human SMMC7721 cells assessed as inhibition of cell growth after 48 hrs by MTT assay. It counts as functional, cell-based. As to conditions: SMMC-7721, 48 h.
The test system of experiment [3] is A549. Description: Cell cycle arrest in human A549 cells assessed as accumulation at S phase at 0.5 uM after 48 hrs by propidium iodide staining based flow cytometry (reference value: 30.85 %). It counts as functional.
Experiment [4] deals with A549. Briefly: Cell cycle arrest in human A549 cells assessed as accumulation at G2/M phase at 0.5 uM after 48 hrs by propidium iodide staining based flow cytometry (reference value: 14.62%). It is filed as functional. (A flow cytometer gives signals particle by particle.)
Experiment [5] relates to A549. Briefly: Induction of apoptosis in human A549 cells assessed as late apoptotic cells at 1 uM after 48 hrs by Annexin V-FITC/propidium iodide staining based flow cytometry (reference value: 2.70 %). It counts as functional.
The test system of experiment [6] is A549. Briefly: Cell cycle arrest in human A549 cells assessed as accumulation at G2/M phase at 0.1 uM after 48 hrs by propidium iodide staining based flow cytometry (reference value: 14.62%). It is filed as functional.
Experiment [7] deals with A549. Description: Induction of apoptosis in human A549 cells assessed as late apoptotic cells at 0.1 uM after 48 hrs by Annexin V-FITC/propidium iodide staining based flow cytometry (reference value: 2.70 %). It is filed as functional.
In experiment [8] the test system is A549. Description: Cell cycle arrest in human A549 cells assessed as accumulation at sub-G1 phase at 0.5 uM after 48 hrs by propidium iodide staining based flow cytometry (reference value: 2.78 %). It counts as functional.
Experiment [9] deals with A549. Briefly: Cell cycle arrest in human A549 cells assessed as accumulation at S phase at 0.1 uM after 48 hrs by propidium iodide staining based flow cytometry (reference value: 30.85 %). It counts as functional.
The test system of experiment [10] is A549. Description: Induction of apoptosis in human A549 cells assessed as viable cells at 1 uM after 48 hrs by Annexin V-FITC/propidium iodide staining based flow cytometry (reference value: 96.08 %). As to conditions: A549, 48 h, read-out: Activity. It is filed as functional.
Experiment [11] relates to A549. Briefly: Cell cycle arrest in human A549 cells assessed as accumulation at sub-G1 phase after 48 hrs by propidium iodide staining based flow cytometry. It counts as functional.
For experiment [12], the system named is A549. Description: Cell cycle arrest in human A549 cells assessed as accumulation at G0/G1 phase at 0.1 uM after 48 hrs by propidium iodide staining based flow cytometry (reference value: 53.54 %). It counts as functional.
For experiment [13], the system named is A549. Briefly: Cell cycle arrest in human A549 cells assessed as accumulation at G2/M phase after 48 hrs by propidium iodide staining based flow cytometry. It counts as functional.
The subject of experiment [14] is A549. Description: Induction of apoptosis in human A549 cells assessed as early apoptotic cells at 1 uM after 48 hrs by Annexin V-FITC/propidium iodide staining based flow cytometry (reference value: 0.57 %). It counts as functional.
Experiment [15] concerns A549. Description: Induction of apoptosis in human A549 cells assessed as late apoptotic cells at 0.5 uM after 48 hrs by Annexin V-FITC/propidium iodide staining based flow cytometry (reference value: 2.70 %). It counts as functional.
For experiment [16], the system named is A549. Briefly: Induction of apoptosis in human A549 cells assessed as early apoptotic cells at 0.5 uM after 48 hrs by Annexin V-FITC/propidium iodide staining based flow cytometry (reference value: 0.57 %). It counts as functional.
The test system of experiment [17] is A549. Briefly: Induction of apoptosis in human A549 cells assessed as early apoptotic cells at 0.1 uM after 48 hrs by Annexin V-FITC/propidium iodide staining based flow cytometry (reference value: 0.57 %). It counts as functional.
Experiment [18] has as its system A549. Description: Cell cycle arrest in human A549 cells assessed as accumulation at G0/G1 phase at 1 uM after 48 hrs by propidium iodide staining based flow cytometry (reference value: 53.54 %). It is filed as functional.
The subject of experiment [19] is A549. Briefly: Cell cycle arrest in human A549 cells assessed as accumulation at G0/G1 phase at 0.5 uM after 48 hrs by propidium iodide staining based flow cytometry (reference value: 53.54 %). It counts as functional.
Experiment [20] relates to A549. Briefly: Cell cycle arrest in human A549 cells assessed as accumulation at S phase at 1 uM after 48 hrs by propidium iodide staining based flow cytometry (reference value: 30.85 %). It is filed as functional.
For experiment [21], the system named is A549. Description: Cell cycle arrest in human A549 cells assessed as accumulation at sub-G1 phase at 1 uM after 48 hrs by propidium iodide staining based flow cytometry (reference value: 2.78 %). It is filed as functional.
Experiment [22] has as its system A549. Description: Cell cycle arrest in human A549 cells assessed as accumulation at sub-G1 phase at 0.1 uM after 48 hrs by propidium iodide staining based flow cytometry (reference value: 2.78 %). It counts as functional.
The test system of experiment [23] is A549. Briefly: Induction of apoptosis in human A549 cells after 48 hrs by Annexin V-FITC/propidium iodide staining based flow cytometry. It is filed as functional, cell-based.
Experiment [24] has as its system A549. Briefly: Cell cycle arrest in human A549 cells assessed as accumulation at G2/M phase at 1 uM after 48 hrs by propidium iodide staining based flow cytometry (reference value: 14.62%). It is filed as functional.
For experiment [25], the system named is A549. Description: Induction of apoptosis in human A549 cells assessed as viable cells at 0.1 uM after 48 hrs by Annexin V-FITC/propidium iodide staining based flow cytometry (reference value: 96.08 %). As to conditions: A549, 48 h, read-out: Activity. It counts as functional.
Experiment [26] deals with A549. Briefly: Induction of apoptosis in human A549 cells assessed as viable cells at 0.5 uM after 48 hrs by Annexin V-FITC/propidium iodide staining based flow cytometry (reference value: 96.08 %). It is filed as functional. As to conditions: A549, 48 h, read-out: Activity.
Experiment [27] concerns HL-60. Briefly: Cytotoxicity against human HL60 cells assessed as inhibition of cell growth after 3 days by MTT assay. It counts as functional, cell-based. As to conditions: HL-60, 72 h.
Another experiment has as its system P338. Description: Cytotoxicity against mouse […] cells assessed as inhibition of cell growth after 3 days by MTT assay. It is filed as functional, cell-based. As to conditions: 72 h.

A value given as a limit tells only on which side of the number the result lay.

In general, IC50 refers to the midpoint of a concentration-inhibition curve.

For `COc1cc(Cn2c3ccc(C(C)=O)cc3c3ccnc(C)c32)cc(OC)c1OC`, the values for the concentration for half-maximal inhibition (IC50) in the experiment on COLO 205 and in the experiment on HL-60 [1] were 0.52 µM and 0.03 µM, respectively.

Consider `CCCCCCn1c2cc(OC)ccc2c2ccnc(C)c21`, for which the IC50 in the experiment on SGC-7901 was 13.3 µM; in the experiment on MCF7 it was above 50 µM; with A549 [2], 4.89 µM; in the experiment with SMMC-7721 it was 14.4 µM.

`COc1ccc2c3ccnc(C)c3n(C(=O)c3ccccc3)c2c1`: the IC50 in the experiment with SGC-7901 was 7.69 µM; with MCF7, above 50 µM; with A549 [2], 2.81 µM; in the experiment on SMMC-7721 it was above 50 µM.

With `CCCn1c2cc(OC)ccc2c2ccnc(C)c21`, the IC50 is 19.4 µM in the experiment on SGC-7901, above 50 µM in the experiment on MCF7, 9.66 µM in the experiment on A549 [2] and 48.8 µM in the experiment with SMMC-7721.

For `COc1ccc2c3ccnc(C)c3n(Cc3ccccc3)c2c1`, the IC50 with SGC-7901 was 38.2 µM; with MCF7, above 50 µM; in the experiment on A549 [2], 7.49 µM; with SMMC-7721, 45.6 µM.

For `COc1ccc2c3ccnc(C)c3n(S(=O)(=O)c3ccc(C)cc3)c2c1`, the IC50 with SGC-7901 was 1.56 µM; in the experiment with MCF7 it was above 50 µM; in the experiment with A549 [2], 0.48 µM; in the experiment with SMMC-7721, above 50 µM. In addition, the Activity with A549 [3] is recorded as 31.93%; with A549 [4], 31.09%; in the experiment on A549 [5], 54.11%; with A549 [6], 16.42%; in the experiment with A549 [7], 18.76%; in the experiment on A549 [8], 21.15%. Further, the Activity was 30.27% in the experiment with A549 [9]; “Dose-dependent effect” in the experiment on A549 [11]; 53.31% with A549 [12]; “Dose-dependent effect” in the experiment with A549 [13]; 17.59% in the experiment on A549 [14]; 42.79% in the experiment on A549 [15]. Moreover, the Activity came out at 11.5% in the experiment with A549 [16]; 2.68% in the experiment on A549 [17]; 36.46% with A549 [18]; 36.99% in the experiment on A549 [19]; 25.9% in the experiment with A549 [20]; 24.88% in the experiment on A549 [21]. The Activity in the experiment with A549 [22] was 8.63%; in the experiment with A549 [23], “Dose-dependent effect”; in the experiment on A549 [24] it was 36.64%. Further, the viability at 1 µM in the experiment on A549 [10] came to 28.2%. Also, the viability at 0.1 µM in the experiment on A549 [25] is 73.1%. Also, in the experiment with A549 [26], the viability at 0.5 µM came out at 45%.

Regarding `CCCCCCCCn1c2cc(OC)ccc2c2ccnc(C)c21`, the 50% inhibitory concentration (IC50) in the experiment with SGC-7901 was 6.68 µM; in the experiment on MCF7, above 50 µM; in the experiment with A549 [2], 4.77 µM; in the experiment on SMMC-7721, 6.95 µM.

`COc1ccc2c3ccnc(C)c3n(S(=O)(=O)c3ccccc3)c2c1`: the half-inhibitory concentration (IC50) in the experiment on SGC-7901 was 5.95 µM; with MCF7 it was above 50 µM; in the experiment with A549 [2] it was 0.83 µM; in the experiment with SMMC-7721, above 50 µM.

Take `CCCCn1c2cc(OC)ccc2c2ccnc(C)c21`: the half-inhibitory concentration (IC50) was 11.3 µM in the experiment on SGC-7901, above 50 µM in the experiment with MCF7, 6.09 µM in the experiment on A549 [2] and 28.6 µM in the experiment on SMMC-7721.

For the compound `COc1ccc2c3ccnc(C)c3n(CCCCCl)c2c1`, the IC50 in the experiment with SGC-7901 is 7.21 µM; in the experiment on MCF7 it was 2.94 µM; in the experiment with A549 [2], 8.73 µM; with SMMC-7721, 17.9 µM.

In the case of `CCCCCn1c2cc(OC)ccc2c2ccnc(C)c21`, the 50% inhibitory concentration (IC50) in the experiment on SGC-7901 was 20.5 µM; in the experiment with MCF7 it was above 50 µM; with A549 [2], 6.37 µM; with SMMC-7721 it was 17.2 µM.

In the case of `COc1ccc2c3ccnc(C)c3n(Cc3cc(F)cc(F)c3)c2c1`, the IC50 with SGC-7901 is 6.47 µM; with MCF7, above 50 µM; with A549 [2], 18.4 µM; in the experiment with SMMC-7721, above 50 µM.

For the compound `COc1ccc(S(=O)(=O)Nc2cccnc2Nc2ccc(O)cc2)cc1` [ABT-751], the results for the IC50 in the experiment on HL-60 [27] and in the experiment on P338 were 0.2 µM and 0.16 µM, respectively.

Consider `COc1cccc2c1C(=O)c1c(O)c3c(c(O)c1C2=O)C[C@@](O)(C(=O)CO)C[C@@H]3O[C@H]1C[C@H](N)[C@H](O)[C@H](C)O1` [DOXORUBICIN], for which the half-maximal inhibitory concentration (IC50) in the experiment with MCF7 was determined as 0.83 µM; in the experiment on A549 [2], 0.76 µM; in the experiment with SMMC-7721, 1.39 µM.

In the case of `CCn1c2cc(OC)ccc2c2ccnc(C)c21`, the half-maximal inhibitory concentration (IC50) in the experiment on SGC-7901 is 29.6 µM; with MCF7 it was above 50 µM; in the experiment on A549 [2], 26.4 µM; in the experiment on SMMC-7721, 24 µM.

These data come from ChEMBL document CHEMBL4425146, “Synthesis and biological evaluation of N(9)-substituted harmine derivatives as potential anticancer agents” (Bioorg Med Chem Lett, 2016).
